# Patent publication US5441941A, “1,2-dihydroellipticines with activity against CNS specific cancer” (The United States of America as represented by the …, priority 1993, dated 1995)
# Assays:
# [1] = system: K-562; test: NCI in vitro screen, SRB percent growth, Leukemia
# [2] = system: NCI-H460; test: NCI in vitro screen, SRB percent growth, Non-Small Cell Lung Cancer
# [3] = system: OVCAR-3; test: NCI in vitro screen, SRB percent growth, Ovarian Cancer
# [4] = system: CNS cancer cell lines; test: NCI in vitro screen, overall result on CNS cancer cell lines; details: Tables I and II
# [5] = system: MALME-3M; test: NCI in vitro screen, SRB percent growth, Melanoma
# [6] = system: SNB-75; test: NCI in vitro screen, SRB percent growth, CNS Cancer
# [7] = system: ACHN; test: NCI in vitro screen, SRB percent growth, Renal Cancer
# [8] = system: DLD-1; test: cells; details: Homo sapiens
# [9] = system: SK-MEL-2; test: NCI in vitro screen, SRB percent growth, Melanoma
# [10] = system: EKVX; test: cells; details: Homo sapiens
# [11] = system: M19-MEL; test: NCI in vitro screen, SRB percent growth, Melanoma
# [12] = system: RPMI-8226; test: cells; details: Homo sapiens
# [13] = system: OVCAR-8; test: NCI in vitro screen, SRB percent growth, Ovarian Cancer
# [14] = system: UACC-62; test: NCI in vitro screen, SRB percent growth, Melanoma
# [15] = system: HL-60 (TB); test: NCI in vitro screen, SRB percent growth, Leukemia
# [16] = system: HOP-62; test: NCI in vitro screen, SRB percent growth, Non-Small Cell Lung Cancer
# [17] = system: M14; test: NCI in vitro screen, SRB percent growth, Melanoma
# [18] = Log10 Concentration -4.0, 100 µM
# [19] = Log10 Concentration -7.0, 0.1 µM
# [20] = DLD-1, read-out: Percent Growth
# [21] = RPMI-8226, read-out: Percent Growth
structure (smiles),measurement,setting,value
COc1ccc2[nH]c3c(C)c4c(c(C)c3c2c1)CN(C)C=C4 [Formula VII],Percent Growth,[1]; [18],-24%
same,Percent Growth,[1]; Log10 Concentration -5.0,11%
same,Percent Growth,"[1]; Log10 Concentration -6.0, 1 µM",75%
same,Percent Growth,[1]; [19],84%
same,TGI,[1]; PG=0,20.4 µM
same,GI50,[1]; PG=+50,2.48 µM
same,CC50,"[1]; read-out: LC-50, PG=-50",> 100 µM
same,Percent Growth,[2]; [18],-71%
same,Percent Growth,"[2]; Log10 Concentration -6.0, 1 µM",67%
same,Percent Growth,[2]; [19],85%
same,Percent Growth,[2]; Log10 Concentration -8.0,93%
same,TGI,[2]; PG=0,9.4 µM
same,GI50,[2]; PG=+50,1.78 µM
same,CC50,"[2]; read-out: LC-50, PG=-50",49.5 µM
same,Percent Growth,[3]; [18],-31%
same,Percent Growth,[3]; Log10 Concentration -5.0,10%
same,Percent Growth,"[3]; Log10 Concentration -6.0, 1 µM",74%
same,Percent Growth,[3]; [19],91%
same,Percent Growth,[3]; Log10 Concentration -8.0,98%
same,TGI,[3]; PG=0,17.3 µM
same,GI50,[3]; PG=+50,2.39 µM
same,CC50,"[3]; read-out: LC-50, PG=-50",> 100 µM
same,effect against CNS cancer cell lines,[4],particularly effective against CNS cancer cell lines
same,Percent Growth,[5]; Log10 Concentration -5.0,-31%
same,Percent Growth,"[5]; Log10 Concentration -6.0, 1 µM",55%
same,Percent Growth,[5]; [19],110%
same,Percent Growth,[5]; Log10 Concentration -8.0,112%
same,TGI,[5]; PG=0,4.37 µM
same,GI50,[5]; PG=+50,1.41 µM
same,CC50,"[5]; read-out: LC-50, PG=-50",> 100 µM
same,Percent Growth,[6]; [18],-58%
same,Percent Growth,[6]; Log10 Concentration -5.0,-78%
same,Percent Growth,"[6]; Log10 Concentration -6.0, 1 µM",-53%
same,Percent Growth,[6]; [19],86%
same,Percent Growth,[6]; Log10 Concentration -8.0,126%
same,TGI,[6]; PG=0,0.416 µM
same,CC50,"[6]; read-out: LC-50, PG=-50",0.953 µM
same,Percent Growth,[7]; [18],-4%
same,Percent Growth,[7]; Log10 Concentration -5.0,79%
same,Percent Growth,"[7]; Log10 Concentration -6.0, 1 µM",102%
same,Percent Growth,[7]; [19],113%
same,Percent Growth,[7]; Log10 Concentration -8.0,113%
same,TGI,[7]; PG=0,89.1 µM
same,GI50,[7]; PG=+50,22.4 µM
same,CC50,"[7]; read-out: LC-50, PG=-50",> 100 µM
same,GI50,[8]; DLD-1,3.23 µM
same,CC50,"[8]; DLD-1, read-out: LC-50",> 100 µM
same,activity at 0.01 µM,[8]; [20],103%
same,activity at 0.1 µM,[8]; [20],99%
same,activity at 1 µM,[8]; [20],75%
same,activity at 10 µM,[8]; [20],26%
same,activity at 100 µM,[8]; [20],-15%
same,IC (TGI),"[8]; DLD-1, read-out: TGI",42.3 µM
same,Percent Growth,[9]; [18],-91%
same,Percent Growth,[9]; Log10 Concentration -5.0,-23%
same,Percent Growth,"[9]; Log10 Concentration -6.0, 1 µM",110%
same,Percent Growth,[9]; [19],137%
same,Percent Growth,[9]; Log10 Concentration -8.0,125%
same,TGI,[9]; PG=0,6.69 µM
same,GI50,[9]; PG=+50,2.83 µM
same,CC50,"[9]; read-out: LC-50, PG=-50",24.7 µM
same,GI50,[10],0.774 µM
same,activity at 0.01 µM,[10]; read-out: Percent Growth,114%
same,activity at 0.1 µM,[10]; read-out: Percent Growth,108%
same,activity at 1 µM,[10]; read-out: Percent Growth,43%
same,activity at 10 µM,[10]; read-out: Percent Growth,3%
same,activity at 100 µM,[10]; read-out: Percent Growth,-11%
same,IC (TGI),[10]; read-out: TGI,16.5 µM
same,Percent Growth,[11]; [18],-62%
same,Percent Growth,[11]; Log10 Concentration -5.0,-36%
same,Percent Growth,"[11]; Log10 Concentration -6.0, 1 µM",48%
same,Percent Growth,[11]; [19],95%
same,Percent Growth,[11]; Log10 Concentration -8.0,117%
same,TGI,[11]; PG=0,3.7 µM
same,GI50,[11]; PG=+50,0.899 µM
same,CC50,"[11]; read-out: LC-50, PG=-50",34.7 µM
same,GI50,[12]; RPMI-8226,6.31 µM
same,CC50,"[12]; RPMI-8226, read-out: LC-50",> 100 µM
same,activity at 0.01 µM,[12]; [21],104%
same,activity at 0.1 µM,[12]; [21],101%
same,activity at 1 µM,[12]; [21],99%
same,activity at 10 µM,[12]; [21],38%
same,activity at 100 µM,[12]; [21],-38%
same,IC (TGI),"[12]; RPMI-8226, read-out: TGI",31.5 µM
same,Percent Growth,[13]; [18],-17%
same,Percent Growth,[13]; Log10 Concentration -5.0,5%
same,Percent Growth,"[13]; Log10 Concentration -6.0, 1 µM",28%
same,Percent Growth,[13]; [19],67%
same,Percent Growth,[13]; Log10 Concentration -8.0,72%
same,TGI,[13]; PG=0,16.6 µM
same,GI50,[13]; PG=+50,0.274 µM
same,CC50,"[13]; read-out: LC-50, PG=-50",> 100 µM
same,Percent Growth,[14]; [18],-44%
same,Percent Growth,[14]; Log10 Concentration -5.0,31%
same,Percent Growth,"[14]; Log10 Concentration -6.0, 1 µM",88%
same,Percent Growth,[14]; [19],118%
same,Percent Growth,[14]; Log10 Concentration -8.0,129%
same,TGI,[14]; PG=0,26.1 µM
same,GI50,[14]; PG=+50,4.68 µM
same,CC50,"[14]; read-out: LC-50, PG=-50",> 100 µM
same,Percent Growth,[15]; [18],-43%
same,Percent Growth,[15]; Log10 Concentration -5.0,93%
same,Percent Growth,"[15]; Log10 Concentration -6.0, 1 µM",121%
same,Percent Growth,[15]; [19],123%
same,Percent Growth,[15]; Log10 Concentration -8.0,118%
same,TGI,[15]; PG=0,48.5 µM
same,GI50,[15]; PG=+50,20.8 µM
same,CC50,"[15]; read-out: LC-50, PG=-50",> 10000 µM
same,Percent Growth,[16]; [18],-81%
same,Percent Growth,[16]; Log10 Concentration -5.0,-57%
same,Percent Growth,"[16]; Log10 Concentration -6.0, 1 µM",14%
same,Percent Growth,[16]; [19],106%
same,Percent Growth,[16]; Log10 Concentration -8.0,115%
same,TGI,[16]; PG=0,1.58 µM
same,GI50,[16]; PG=+50,0.406 µM
same,CC50,"[16]; read-out: LC-50, PG=-50",7.89 µM
same,Percent Growth,[17]; [18],-98%
same,Percent Growth,[17]; Log10 Concentration -5.0,40%
same,Percent Growth,"[17]; Log10 Concentration -6.0, 1 µM",103%
same,Percent Growth,[17]; [19],111%
same,Percent Growth,[17]; Log10 Concentration -8.0,99%
same,TGI,[17]; PG=0,19.6 µM
same,GI50,[17]; PG=+50,7.01 µM
same,CC50,"[17]; read-out: LC-50, PG=-50",45.2 µM
